Source: patent US11839214B2, “Fungicidal mixture comprising substituted pyridines” (BASF SE, priority 2017, dated 2023)
Read-outs that look alike come from different tables or passages of the source.

Tests used:
Assay type in all cases: cell-based
Botrytis cinerea = test: Activity against the grey mold Botrytis cinerea in the microtiterplate test
Pyricularia oryzae = test: microbe, parasite or virus in culture
Septoria tritici = test: Activity against leaf blotch on wheat caused by Septoria tritici (microtiterplate test)
Sclerotinia sclerotiorum = test: Activity against Sclerotinia sclerotiorum in the microtiterplate test
[1] = Botrytis cinerea, 168 h, single active compound, read-out: Observed efficacy
[2] = Botrytis cinerea, 168 h, single active compound, 1 ppm, read-out: Observed efficacy
[3] = Botrytis cinerea, 168 h, single active compound, 4 ppm, read-out: Observed efficacy
[4] = Pyricularia oryzae, 168 h, read-out: Observed efficacy
[5] = Zymoseptoria tritici, 168 h, single active, 1 ppm, read-out: Observed efficacy
[6] = Zymoseptoria tritici, 168 h, single active, 4 ppm, read-out: Observed efficacy
[7] = Zymoseptoria tritici, 168 h, single active, read-out: Observed efficacy
[8] = Sclerotinia sclerotiorum, 168 h, single active compound, read-out: Observed efficacy
[9] = Sclerotinia sclerotiorum, 168 h, single active compound, 4 ppm, read-out: Observed efficacy
[10] = Zymoseptoria tritici, 168 h, single active, 0.25 ppm, read-out: Observed efficacy
[11] = Zymoseptoria tritici, 168 h, read-out: Observed efficacy

Cc1cc(C2=NC(C)(C)C(F)(F)c3ccccc32)cnc1C [Compound 1-1]
inhibition of growth at 0.25 ppm (Botrytis cinerea; [1]): 13% | inhibition of growth at 1 ppm (Botrytis cinerea; [2]): 13% | inhibition of growth at 4 ppm (Botrytis cinerea; [3]): 16% | inhibition of growth at 16 ppm (Botrytis cinerea; [1]): 19% | inhibition of growth at 0.25 ppm (Pyricularia oryzae; [4]): 23% | inhibition of growth at 1 ppm (Pyricularia oryzae; [4]): 24% | inhibition of growth at 4 ppm (Pyricularia oryzae; [4]): 53% | inhibition of growth at 1 ppm (Septoria tritici; [5]): 9% | inhibition of growth at 4 ppm (Septoria tritici; [6]): 18% | inhibition of growth at 16 ppm (Septoria tritici; [7]): 37% | inhibition of growth at 0.25 ppm (Sclerotinia sclerotiorum; [8]): 7% | inhibition of growth at 1 ppm (Sclerotinia sclerotiorum; [8]): 7% | inhibition of growth at 4 ppm (Sclerotinia sclerotiorum; [9]): 10% | inhibition of growth at 16 ppm (Sclerotinia sclerotiorum; Sclerotinia sclerotiorum, 168 h, single active compound, 16 ppm, read-out: Observed efficacy): 32%

Cc1cc(C2=NC(C)(C)C(F)(F)c3ccccc32)cnc1C(F)F [Compound 1-2]
inhibition of growth at 1 ppm (Botrytis cinerea; [2]): 15% | inhibition of growth at 4 ppm (Botrytis cinerea; [3]): 19% | inhibition of growth at 16 ppm (Botrytis cinerea; [1]): 31% | inhibition of growth at 0.063 ppm (Pyricularia oryzae; [4]): 14% | inhibition of growth at 0.25 ppm (Pyricularia oryzae; [4]): 20% | inhibition of growth at 1 ppm (Pyricularia oryzae; [4]): 32% | inhibition of growth at 0.25 ppm (Septoria tritici; [10]): 12% | inhibition of growth at 1 ppm (Septoria tritici; [5]): 6% | inhibition of growth at 4 ppm (Septoria tritici; [6]): 29% | inhibition of growth at 4 ppm (Sclerotinia sclerotiorum; [9]): 16%

Cc1ncc(C2=NC(C)(C)C(F)(F)c3ccccc32)cc1CF [Compound 1-3]
inhibition of growth at 1 ppm (Botrytis cinerea; [2]): 6% | inhibition of growth at 4 ppm (Botrytis cinerea; [3]): 9% | inhibition of growth at 16 ppm (Botrytis cinerea; [1]): 19% | inhibition of growth at 0.025 ppm (Pyricularia oryzae; [4]): 20% | inhibition of growth at 1 ppm (Pyricularia oryzae; [4]): 26% | inhibition of growth at 4 ppm (Pyricularia oryzae; [4]): 52% | inhibition of growth at 0.063 ppm (Septoria tritici; [7]): 11% | inhibition of growth at 0.25 ppm (Septoria tritici; [10]): 13% | inhibition of growth at 1 ppm (Septoria tritici; [5]): 9% | inhibition of growth at 4 ppm (Septoria tritici; [6]): 13% | inhibition of growth at 16 ppm (Septoria tritici; [7]): 34% | inhibition of growth at 1 ppm (Sclerotinia sclerotiorum; [8]): 3% | inhibition of growth at 4 ppm (Sclerotinia sclerotiorum; [9]): 8%

N#Cc1sc2c(=O)c3ccccc3c(=O)c=2sc1C#N [Dithianon, dithianon]
inhibition of growth at 0.25 ppm (Botrytis cinerea; [1]): 4% | inhibition of growth at 0.063 ppm (Pyricularia oryzae; [4]): 14% | inhibition of growth at 0.25 ppm (Pyricularia oryzae; [4]): 36% | inhibition of growth at 0.063 ppm (Septoria tritici; [7]): 22% | inhibition of growth at 0.25 ppm (Septoria tritici; [10]): 82% | inhibition of growth at 1 ppm (Sclerotinia sclerotiorum; [8]): 36%

O=[N+]([O-])c1cc(C(F)(F)F)c(Cl)c([N+](=O)[O-])c1Nc1ncc(C(F)(F)F)cc1Cl [Fluazinam, fluazinam]
inhibition of growth at 0.063 ppm (Pyricularia oryzae; [4]): 6% | inhibition of growth at 0.25 ppm (Sclerotinia sclerotiorum; [8]): 58%

N#Cc1c[nH]cc1-c1cccc2c1OC(F)(F)O2 [Fludioxonil, fludioxonil]
inhibition of growth at 0.004 ppm (Pyricularia oryzae; [4]): 16% | inhibition of growth at 0.016 ppm (Pyricularia oryzae; [4]): 35% | inhibition of growth at 0.063 ppm (Pyricularia oryzae; [4]): 40% | inhibition of growth at 0.25 ppm (Septoria tritici; [11]): 10% | inhibition of growth at 0.016 ppm (Sclerotinia sclerotiorum; Sclerotinia sclerotiorum, 168 h, read-out: Observed efficacy): 13%

CC(C)O/N=C(/CNC(=O)c1cn(C)nc1C(F)F)c1ncc(C#CC2CC2)cc1Cl [Pyrapropyon, pyrapropoyne]
inhibition of growth at 4 ppm (Botrytis cinerea; [3]): 35% | inhibition of growth at 16 ppm (Botrytis cinerea; [1]): 71% | inhibition of growth at 4 ppm (Pyricularia oryzae; [4]): 1% | inhibition of growth at 16 ppm (Pyricularia oryzae; [4]): 4% | inhibition of growth at 1 ppm (Septoria tritici; [5]): 42% | inhibition of growth at 4 ppm (Sclerotinia sclerotiorum; [9]): 55%

Cc1cc(C)nc(Nc2ccccc2)n1 [Pyrimethanil, pyrimethanil]
inhibition of growth at 1 ppm (Botrytis cinerea; [2]): 50% | inhibition of growth at 4 ppm (Botrytis cinerea; [3]): 72% | inhibition of growth at 1 ppm (Septoria tritici; [5]): 6% | inhibition of growth at 16 ppm (Septoria tritici; [7]): 21% | inhibition of growth at 1 ppm (Sclerotinia sclerotiorum; [8]): 15% | inhibition of growth at 4 ppm (Sclerotinia sclerotiorum; [9]): 21%

CC1(C)N=C(c2cnc3ccccc3c2)c2ccccc2C1(F)F [Quinofumelin, quinofumelin]
Observed efficacy (Botrytis cinerea; single active compound, 1 ppm): 30% | Observed efficacy (Pyricularia oryzae; single active compound, 1 ppm): 34% | Observed efficacy (Septoria tritici; single active, 1 ppm): 41% | Observed efficacy (Sclerotinia sclerotiorum; single active compound, 4 ppm): 65%

Cc1nc(C(F)(F)F)c(C(=O)Nc2c(Br)cc(OC(F)(F)F)cc2Br)s1 [Thifluzamid, thifluzamide]
inhibition of growth at 4 ppm (Botrytis cinerea; Botrytis cinerea, 168 h, read-out: Observed efficacy): 37% | inhibition of growth at 1 ppm (Pyricularia oryzae; [4]): 2% | inhibition of growth at 4 ppm (Pyricularia oryzae; [4]): 16% | inhibition of growth at 4 ppm (Septoria tritici; [11]): 69%

Cc1ccc(NC(=O)c2snnc2C)cc1Cl [Tiadinil, tiadinil]
inhibition of growth at 16 ppm (Botrytis cinerea; [1]): 6% | inhibition of growth at 63 ppm (Botrytis cinerea; Botrytis cinerea, 168 h, single active compound, 63 ppm, read-out: Observed efficacy): 19% | inhibition of growth at 4 ppm (Pyricularia oryzae; [4]): 2% | inhibition of growth at 16 ppm (Pyricularia oryzae; [4]): 10% | inhibition of growth at 63 ppm (Pyricularia oryzae; [4]): 21% | inhibition of growth at 4 ppm (Septoria tritici; [6]): 21% | inhibition of growth at 16 ppm (Septoria tritici; [7]): 18% | inhibition of growth at 63 ppm (Septoria tritici; Zymoseptoria tritici, 168 h, single active, 63 ppm, read-out: Observed efficacy): 30%

CON=C(C(=O)OC)c1ccccc1CON=C(C)c1cccc(C(F)(F)F)c1 [Trifloxystrobin, trifloxystrobin]
inhibition of growth at 0.063 ppm (Botrytis cinerea; Botrytis cinerea, 168 h, single active compound, 0.063 ppm, read-out: Observed efficacy): 4% | inhibition of growth at 0.004 ppm (Pyricularia oryzae; [4]): 8% | inhibition of growth at 0.016 ppm (Pyricularia oryzae; [4]): 23% | inhibition of growth at 0.016 ppm (Septoria tritici; Zymoseptoria tritici, 168 h, single active, 0.016 ppm, read-out: Observed efficacy): 27%
